Here are results for nine compounds from patent publication US10881107B2, “Antimicrobial compositions containing alkylpyrazines and their uses” (ROOMBIOTIC GMBH, priority 2015, dated 2021).

The test in a line: antimicrobial activity test of alkyl pyrazine compounds or mixtures. It is filed as cell-based. The text has this: Several alkyl pyrazine compounds or mixtures thereof have been tested for their antimicrobial activity.

For `Cc1cnc(C)c(C)n1` [2,3,5-Trimethylpyrazine, reference compound], the Antimicrobial activity entry is “No”.

In the case of `Cc1nccnc1C` [2,3-Dimethylpyrazine, reference compound], the Antimicrobial activity result is given as “Yes” and the “Degree of antimicrobiai activity” value is “Weak”.

Take `Cc1cnc(C)cn1` [2,5-Dimethylpyrazine, reference compound]: the Antimicrobial activity entry is on record as “Yes” and the “Degree of antimicrobiai activity” value is “Weak”.

With `CC(=O)c1cnccn1` [2-Acetylpyrazine, reference compound], the Antimicrobial activity entry is listed as “No”.

Turning to `COc1nccnc1CC(C)C` [2-Isobutyl-3-methoxypyrazine], the Antimicrobial activity entry is “Yes” and the “Degree of antimicrobiai activity” value is recorded as “Strong”.

On to `Cc1nccnc1CC(C)C` [2-Isobutyl-3-methylpyrazine], for which the Antimicrobial activity result is recorded as “Yes” and the “Degree of antimicrobiai activity” value is “Strong”.

With `CC(C)Cc1cnccn1` [2-Isobutylpyrazine], the Antimicrobial activity result is recorded as “Yes” and the “Degree of antimicrobiai activity” value is “Strong”.

As for `CC(C)c1cnccn1` [2-Isopropylpyrazine], the Antimicrobial activity entry is recorded as “Yes” and the “Degree of antimicrobiai activity” value is given as “Strong”.

Consider `Cc1nc(C(C)C)c(C(C)C)nc1C(C)C` [TS-73], for which the Antimicrobial activity entry is on record as “No”.
